Source: publication PMC10974743, “Design, Synthesis, and Biological Evaluation of Novel Phenoxy Acetic Acid Derivatives as Selective COX-2 Inhibitors Coupled with Comprehensive Bio-Pharmacological Inquiry, Histopathological Profiling, and Toxicological Scrutiny” (Molecules, 2024)
Entries after “also recorded” stand apart in the source; their conditions may differ. Marks after values point to notes of the source that are not given here.

What was measured:
human COX-2 = target: T1, human COX-2 (Homo sapiens, UniProt P35354); test: In vitro COX-2 inhibition assay (Cayman colorimetric COX inhibitor screening kit)
T1 sequence (P35354 18-604): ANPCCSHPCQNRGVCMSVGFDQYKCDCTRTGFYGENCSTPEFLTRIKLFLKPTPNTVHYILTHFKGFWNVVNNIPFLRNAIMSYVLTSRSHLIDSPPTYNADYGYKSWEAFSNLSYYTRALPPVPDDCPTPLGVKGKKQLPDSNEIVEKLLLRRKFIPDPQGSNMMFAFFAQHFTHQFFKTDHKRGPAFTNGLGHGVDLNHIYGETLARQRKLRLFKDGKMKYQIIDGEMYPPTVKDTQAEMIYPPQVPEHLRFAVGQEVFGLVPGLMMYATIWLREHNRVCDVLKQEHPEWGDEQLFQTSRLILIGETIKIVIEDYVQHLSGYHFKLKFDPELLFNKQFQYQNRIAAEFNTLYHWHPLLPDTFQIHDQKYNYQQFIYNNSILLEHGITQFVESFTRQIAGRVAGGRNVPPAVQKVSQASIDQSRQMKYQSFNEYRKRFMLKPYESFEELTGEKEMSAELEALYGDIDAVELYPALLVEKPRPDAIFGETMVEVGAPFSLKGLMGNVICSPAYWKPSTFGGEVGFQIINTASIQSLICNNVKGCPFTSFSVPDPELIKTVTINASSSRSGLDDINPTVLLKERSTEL
Protocol: (§7) The in vitro enzyme assays were performed at the Biochemistry Department, Cairo
(§8) General Hospital, Egypt. Cayman® colorimetric COX (ovine) inhibitor screening assay kit (Item
(§9) enzymes in presence of all newly compounds. Generally, this kit is dependent on the reductive
(§10) reaction of COX. A specific antibody binds to PGH2 produced by COX and is further quantified
(§11) by the ELISA technique as previously reported. After that, the selectivity index (SI) was calculated
as the following equation:
𝐒𝐞𝐥𝐞𝐜𝐭𝐢𝐯𝐢𝐭𝐲 𝐢𝐧𝐝𝐞𝐱 (𝐒𝐈) = 𝐈𝐂₅₀𝐨𝐟 𝐂𝐎𝐗 − 𝟏

[1] = test system: carrageenan-induced paw edema; test: Carrageenan paw edema test (paw thickness, paw weight); conditions: for Paw thickness difference: oral; for Percentage of inhibition of paw thickness: vs carrageenan group
[2] = test system: paw tissue, carrageenan paw edema model; test: Histopathological examination of paws, inflammatory cell infiltration score; assay type: in vivo, rats
Protocol: The histopathological assessments were performed according to the following procedures (Supplementary Materials, page 54). […]
Histopathological examination
Thirty-six rats were separated into six groups of six rats each for histological assessment […]
groupings consisted of a control group, a carrageenan group, two groups for the reference drugs […]
protocols that were utilized in the in-vivo anti-inflammatory activity test were used. After a duration of 5 hours, the animals were euthanized, and their left paws were amputated. The paws were preserved in 10% neutral buffered formalin, trimmed, washed, dehydrated in increasing concentrations of ethyl alcohol, clarified in xylene, and ultimately embedded in paraffin. They were then sliced into 4-6µ thick slices, stained with Hematoxylin and Eosin, and examined under a light microscope. A scoring system was used to evaluate the degree of inflammation, dividing it into six categories ranging from 0 indicating no inflammation to 5 indicating severe inflammation.
Each score corresponded to a certain level of inflammation: 0 for no inflammation, 1 for mild inflammation, 2 for mild to moderate inflammation, 3 for moderate inflammation, 4 for moderate to severe inflammation, and 5 for severe inflammation.

[3] = test system: nociceptive responses on hot plate; test: Hot plate latency test (analgesic activity); assay type: in vivo, rats; conditions: for Hot plate latency period: plate 50 °C, mean ± SD, n = 6
Protocol: The hot plate latency test was performed according to the following procedures (Supplementary Materials, page 54). […]
In summary, thirty rats
The normal control group received 1% CMC, while the remaining groups were administered their respective reference or test compounds. Each rat was gently positioned on a heated plate set at 50 ◦C. The latency period for nociceptive responses, such as paw licking or jumping off the hot plate, was recorded at 30-, 60-, 90-, and 120 minutes post-administration of the reference drugs, test […]

TNF-α = TNF-α content of paw exudate by ELISA, carrageenan paw edema model; assay type: in vivo, Sprague Dawley rats; conditions: vs carrageenan group
Protocol: (§1) ELISA assessment assays were conducted as cited (Supplementary Materials, page 53).
(§2) In-vivo anti-inflammatory activity […]
(§3) cervical dislocation. […] The percentage
(§4) Weight of the left paw] ×100.
(§5) Assessment of inflammatory biomarkers using ELISA […]
(§6) content, using enzyme -linked immunosorbent assay (ELISA). The ELISA kits were purchased from CLOUD -CLONE CORP (CCC, USA) (Cat# SEA133Ra) and MyBioSource company (British Columbia, Canada) (Cat# MBS730592) respectively, and the assays were performed following the manufacturer' s instructions. Additionally, the protein content of the exudates was determined using the Bradford method.

[4] = Assessment of liver and kidney function (serum ALT, AST, creatinine, urea); assay type: in vivo, rats; design: Urea: unit not given here; conditions: mean ± SD
Protocol: These assessments were conducted following the manufacturer’s instructions (Supplementary Materials, page 55).
In-vivo anti-inflammatory activity
as §3, §4
Assessment of inflammatory biomarkers using ELISA

PGE2 = PGE2 content of paw exudate by ELISA, carrageenan paw edema model; assay type: in vivo, Sprague Dawley rats; conditions: vs carrageenan group
Protocol: as §1, §2, §3, §4, §5, §6

COX-2 = conditions: cited from earlier work
gastric mucosa = test: Evaluation of ulcerogenic effects (macroscopic scores and gastric histopathology)
Protocol: The assessment of ulcerogenic effects was conducted following established procedures [42, 57]
Following the experimental period, the animals were euthanized using pentobarbital sodium (100 mg/kg), and blood was collected via jugular vein exsanguination for later evaluation of liver and kidney function, and subsequently sacrificed by cervical dislocation. […] Following this, the animals' stomachs were removed, inflated, and opened along the greater curvature to evaluate ulcerogenic effects.
B: Ulcer lesion severity scoring system
2.5 More than 10 small ulcers
3 1 marked ulcer plus 0 to 4 small ulcers
3.5 1 marked ulcer plus 5 or more small ulcers
4 2 marked ulcers plus 0 to 4 small ulcers
4.5 2 marked ulcers plus 5 or more small ulcers
5 3 or more marked ulcers
The statistical analysis of the data was conducted using GraphPad Prism 9.5.1 Demo
(GraphPad Software, San Diego, CA). One -way analysis of variance (ANOVA) was utilized to
evaluate differences among the various groups, except for paw edema volume, which un derwent
analysis using two -way ANOVA. Post -hoc analysis was performed using Tukey's multiple
significance set at P < 0.05

ovine COX-1 = target: T2, ovine COX-1 (Ovis aries, UniProt P05979); test: In vitro COX-1 inhibition assay (Cayman colorimetric COX inhibitor screening kit)
T2 sequence (P05979 25-600): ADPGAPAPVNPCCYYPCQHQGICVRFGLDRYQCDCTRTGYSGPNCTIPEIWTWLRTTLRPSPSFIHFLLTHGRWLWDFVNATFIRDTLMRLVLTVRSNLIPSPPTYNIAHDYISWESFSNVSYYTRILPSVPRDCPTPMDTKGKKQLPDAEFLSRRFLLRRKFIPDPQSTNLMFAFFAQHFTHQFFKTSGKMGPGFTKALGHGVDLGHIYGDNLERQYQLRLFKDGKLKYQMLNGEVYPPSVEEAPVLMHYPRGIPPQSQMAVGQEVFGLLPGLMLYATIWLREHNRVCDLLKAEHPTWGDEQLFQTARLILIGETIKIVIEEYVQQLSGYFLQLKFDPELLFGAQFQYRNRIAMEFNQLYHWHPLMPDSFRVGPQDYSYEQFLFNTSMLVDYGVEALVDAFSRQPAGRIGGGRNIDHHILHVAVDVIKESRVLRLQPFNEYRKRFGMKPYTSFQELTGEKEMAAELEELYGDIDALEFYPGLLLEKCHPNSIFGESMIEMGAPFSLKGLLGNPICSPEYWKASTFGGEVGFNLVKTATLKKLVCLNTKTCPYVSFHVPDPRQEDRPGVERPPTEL
Protocol: as §7, §8, §9, §10, §11
as the following equation:
𝐒𝐞𝐥𝐞𝐜𝐭𝐢𝐯𝐢𝐭𝐲 𝐢𝐧𝐝𝐞𝐱 (𝐒𝐈) = 𝐈𝐂₅₀𝐨𝐟 𝐂𝐎𝐗 − 𝟏

[5] = compared to the normal control group

Structure (SMILES): Cc1cccc(Nc2ccccc2C(=O)O)c1C [Mefenamic acid, mefenamic acid, reference compound]
- SI (COX-2 selectivity index) (human COX-2; COX-1 (IC50)/COX-2 (IC50)): 15.10
- IC50 (human COX-2; COX-2 IC50, mean ± SEM, n = 3): 1.98 ± 0.02 µM
- Paw thickness difference ([1]; 1st h after carrageenan, mean ± SD, n = 6): 1.22 ± 0.19 mm
- Percentage of inhibition of paw thickness ([1]; 1st h): 38.43%
- Paw thickness difference ([1]; 2nd h after carrageenan, mean ± SD, n = 6): 2.27 ± 0.11 mm
- Percentage of inhibition of paw thickness ([1]; 2nd h): 31.22%
- Paw thickness difference ([1]; 3rd h after carrageenan, mean ± SD, n = 6): 2.86 ± 0.11 mm
- Percentage of inhibition of paw thickness ([1]; 3rd h): 32.37%
- Paw thickness difference ([1]; 4th h after carrageenan, mean ± SD, n = 6): 3.22 ± 0.19 mm
- Percentage of inhibition of paw thickness ([1]; 4th h): 36.16%
- Paw thickness difference ([1]; 5th h after carrageenan, mean ± SD, n = 6): 3.51 ± 0.07 mm
- Percentage of inhibition of paw thickness ([1]; 5th h): 33.89%
- Paw Weight Increase ([1]; right vs left paw, after 5 h, mean ± SD, n = 6): 34.08 ± 2.27 ^ab %
- Paw histopathological finding ([2]; H&E staining, carrageenan paw edema): infiltration of dermis by high number of inflammatory cells mainly lymphocytes and eosinophils; also recorded: significant cutaneous infiltration by inflammatory cells
- Reduction in inflammatory cell infiltration score ([2]; vs carrageenan group, paw, 5 hours): 37.04%
- Hot plate latency period ([3]; 30 min post-administration): 9.95 ± 0.35 ^ab
- Increase in latency period ([3]; 60 min mark): 58.38%
- Hot plate latency period ([3]; 60 min post-administration): 11.58 ± 0.25 ^ab
- Hot plate latency period ([3]; 90 min post-administration): 12.83 ± 0.36 ^ab
- Hot plate latency period ([3]; 120 min post-administration): 13.73 ± 0.42 ^a
- Reduction of TNF-α exudate content (TNF-α): 60.09%
- ALT ([4]; n = 6): 88.84 ± 6.09 IU/L
- AST ([4]; n = 6): 97.51 ± 8.08 IU/L
- AST/ALT ([4]; n = 6): 1.10 ± 0.15
- Urea ([4]; n = 6): 27.58 ± 2.08
- Creatinine ([4]; n = 6, in mg/dL (unit assumed)): 0.72 ± 0.05
- Reduction of PGE2 exudate content (PGE2): 59.37%
- IC50 (COX-2): 5.3 µM
- Gastric mucosa histopathological finding (gastric mucosa; H&E staining): ulcer formation with desquamation of gastric mucosal epithelium; also recorded: ulcer development and desquamation of the stomach mucosal epithelium
- Increase in ulcer number (gastric mucosa; [5]): 233.33%
- Increase in ulcer severity score (gastric mucosa; [5]): 366.67%
- Ulcer Number Score (gastric mucosa; mean ± SD, n = 6): 1.67 ± 0.82 ^a
- Ulcer Severity Score (gastric mucosa; mean ± SD, n = 6, scale 0 to 5): 1.17 ± 0.61 ^a
- IC50 (ovine COX-1): 29.9 ± 0.09 µM
